Experimental data: patent US20210353579A1, “HIGH PENETRATION COMPOSITIONS AND USES THEREOF” (Techfields Pharma Co., Ltd., priority 2006, published 2021)

Assays:
[1] = test system: cats with ocular hypertension; assay: Intraocular pressure in cats with ocular hypertension; assay type: in vivo, cat
Description: The ability of diethylaminoethyl acetylsalicylate.HCl to reduce intraocular pressure (IOP) was evaluated in cats with ocular hypertension produced by previously done laser trabeculoplastry. IOP was determined with a pneumatonometer after light corneal anesthesia with dilute proparacaine. 14 Cats were divided into 2 groups. Baseline IOP was determined prior to treatment with the test compound aqueous solution. […] In group B, 30 mg/kg of diethylaminoethyl acetylsalicylate.HCl the area around eye (outside) of cat trice per day for 10 days.

[2] = test system: Human breast cancer cells (BCAP-37); assay: Human breast cancer xenograft in nude mice, topical; settings: day 42; 30 μl of 5% (1.5 mg) topically every 8 hours from day 14; control 800 ± 100
Summary of the method: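 BCAP-37 tumour tissue (2-3 mm^3) was xenografted subcutaneously into the front leg of nude BALB mice, 7 per group. Compounds were applied topically as 30 μl of 5% solution (1.5 mg) in acetone or water.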

[3] = test system: Human colon cancer cells (LS174J); assay: Human colon cancer xenograft in nude mice, topical; settings: day 30, about 30 μl of 5% solution (1.5 mg) topically applied
Description: Human colon cancer cells (LS174J, 2-3 mm^3 of tumor tissue was used in each mouse) are subcutaneously xenografted into the front leg of nude mice (BALB).

Chinese white rabbits [4] = assay: Malassezia-induced lesions similar to psoriasis; assay type: in vivo, rabbit; settings: 5% aqueous solution twice per day, 10 days after application
Description: Heavy suspensions of Malassezia [Rosenberg, E. W., et al., Mycopathologia, 72, 147-154 (1980)] were applied to the shaved skin on the backs of the Chinese white rabbits (n=4×6) twice (at 7 am and 7 pm) per day for 2 weeks, lesions similar to psoriasis resulted.

mice (MRL/LPR) = assay: Anti-lupus erythematosus activity; assay type: in vivo, mouse; settings: 30 mg/kg topically twice per day, after 6 weeks
[5] = test system: rats (SLAC/GK, type 2 diabetes); assay: Blood glucose in type 2 diabetes rats, transdermal; assay type: in vivo, rat; settings: diabetic rats (SLAC/GK)
Description: (§1) HPPs lower blood glucose level in rat models (SLAC/GK, type 2 diabetes, n=7). 50% acetone solution of diethylaminoethyl acetylsalicylate.acetylsalicylic acid salt (P-1, in acetone); 4-acetamidophenyl salicylyldimethylaminobutyrate.HCl (P-6), diethylaminoethyl 5-(2,4-difluorophenyl) acetylsalicylate.5-(2,4-difluorophenyl).acetylsalicylic acid salt (P-8), diethylaminoethyl salicylsalicylate.AcOH (P-9), diethylaminoethyl salicylate.AcOH (P-10), diethylaminoethyl 5-acetamido-acetylsalicylate (P-58), diethylaminoethyl acetylsalicylsalicylate.acetylsalicylsalicylic acid salt (P-59), diethylaminoethyl acetylsalicylsalicylate.acetylsalicylsalicylsalicylic acid salt (P-60) (equal to of 20 mg/kg of NSAIAs) are administered transdermally to the backs (about 1.5 cm^2) of rats (fur was shaved) once per day (at 8 am) for 5 weeks. The blood glucose levels are measured once every 3 days at 3 pm (no fasting) from the second week to the fifth week (Table 24). The blood lipid levels are measured at the end of the fifth week (Table 25).

[6] = test system: rats (SLAC/GK, type 2 diabetes); assay: Blood lipid in type 2 diabetes rats, transdermal; assay type: in vivo, rat
Description: as §1

[7] = test system: rats (SLAC/GK, type 2 diabetes); assay: Blood glucose in type 2 diabetes rats, oral with food; assay type: in vivo, rat
Description: (§2) 20% acetone solution of diethylaminoethyl acetylsalicylate.acetylsalicylic acid salt (P-1, in acetone); 4-acetamidophenyl salicylyldimethylaminobutyrate.HCl (P-6), diethylaminoethyl 5-(2,4-difluorophenyl) acetylsalicylate.5-(2,4-difluorophenyl) acetylsalicylic acid salt (P-8), diethylaminoethyl salicylsalicylate.AcOH (P-9), diethylaminoethyl salicylate.AcOH (P-10), diethylaminoethyl 5-acetamido-acetylsalicylate (P-58), diethylaminoethyl acetylsalicylsalicylate. acetylsalicylsalicylic acid salt (P-59), diethylaminoethyl acetylsalicylsalicylate. acetylsalicylsalicylsalicylic acid salt (P-60) (equal to of 20 mg/kg of NSAIAs) were mixed with food and were orally administered to the rats (SLAC/GK, type 2 diabetes, n=7) with food every day for 5 weeks. The blood glucose levels were measured once every 3 days at 3 pm (no fasting) from the second week to the fifth week. The blood lipid levels were measured at the end of the fifth week.

[8] = test system: rats (SLAC/GK, type 2 diabetes); assay: Blood lipid in type 2 diabetes rats, oral with food; assay type: in vivo, rat
Description: as §2

[9] = test system: mice (SLAC:NOD-IDDM, type 1 diabetes); assay: Blood glucose in type 1 diabetes mice, transdermal; assay type: in vivo, mouse
Description: The pro-drugs in this invention lower blood glucose levels in mouse models (SLAC:NOD-IDDM, type 1 diabetes, n=7). 50% acetone solution of diethylaminoethyl acetylsalicylate.acetylsalicylic acid salt (P-1, in acetone); 4-acetamidophenyl salicylyldimethylaminobutyrate.HCl (P-6), diethylaminoethyl 5-(2,4-difluorophenyl) acetylsalicylate.5-(2,4-difluorophenyl) acetylsalicylic acid salt (P-8), diethylaminoethyl salicylsalicylate.AcOH (P-9), diethylaminoethyl salicylate.AcOH (P-10), diethylaminoethyl 5-acetamido-acetylsalicylate (P-58), diethylaminoethyl acetylsalicylsalicylate. acetylsalicylsalicylic acid salt (P-59), diethylaminoethyl acetylsalicylsalicylate. acetylsalicylsalicylsalicylic acid salt (P-60) (equal to of 30 mg/kg of NSAIAs) were administered transdermally to the backs (about 1.5 cm^2) of mice (fur was shaved) once per day (at 8 am) for 7 weeks. The blood glucose levels were measured once every 3 days at 3 pm (no fasting) from the fourth week to the seventh week.

Chinese white rabbits [10] = assay: Autologous blood clot pulmonary embolization, thrombus propagation; assay type: in vivo, rabbit; settings: 20 mg/kg topically, after 2 days
Description: Eighteen Chinese White rabbits weighing between 3.0 and 3.5 kg (aged 6-7 months) were selected and divided into three groups (control, P-1 and […] groups, n=6). One hour before the experiment, thrombi were made by aspirating venous blood (1 ml) into a sterilized bottle to clot. To avoid fragmentation and slow lysis, the autologous blood clots were stabilized in temperature-controlled (70° C.) distilled water for 10 min. After anesthesia, the femoral veins were exposed and distally isolated, and autologous blood clots (0.05 g/kg) were injected through an indwelling catheter (20 GA), which had been placed in the femoral vein isolated earlier. 50% acetone solution of diethylaminoethyl acetylsalicylate.acetylsalicylic acid salt (P-1, in acetone, 20 mg/kg) and diethylaminoethyl acetylsalicylsalicylate. acetylsalicylsalicylic acid salt (P-59, 20 mg/kg) were topically applied to the back of the rabbits. After 2 days, rabbits were euthanized with an excessive intravenous injection of sodium amobarbital (60 mg/kg). The lungs and hearts were isolated to observe whether thrombi were present in the pulmonary arteries. The lungs were immersed in 10% formalin for 24 h. Consecutive transverse sections along the obstructed pulmonary arteries were paraffin-embedded and stained with hematoxylin-eosine. […]

normal rats [11] = assay: Blood glucose in normal rats, transdermal; assay type: in vivo, rat
Description: as §1, with “25). […]” for “25).”

normal rats [12] = assay: Blood glucose in normal rats, oral with food; assay type: in vivo, rat
Hypertension patients = assay: Anti-hypertension effect of transdermal atenolol in patients; assay type: in vivo, human; settings: value after the slash, 100 mg atenolol HCl salt to the chest once per day
Description: 20 Hypertension patents were divided to 2 groups. Group A is control group (n=10, 1 ml of water was administrated to the chest of patients once per day) and group B is atenolol treated group (n=10, 100 mg of atenolol HCl salt was administrated to the chest of patients once per day) (Table 32).

[13] = 1 hour after 50 mg/kg on the back of sheep, 10% aqueous solution
[14] = baseline, equal to 20 mg/kg of NSAIAs
[15] = end of the fifth week, equal to 20 mg/kg of NSAIAs once per day
[16] = end of the fifth week, equal to 20 mg/kg of NSAIAs every day

CCN(CC)CCOC(=O)c1ccccc1OC(C)=O.Cl [Diethylaminoethyl acetylsalicylate.HCl, diethylaminoethyl acetylsalicylate.HCl]
anti-glaucoma activity ([1]; 30 mg/kg around the eye, 10 days): very strong anti-glaucoma activity

CC(=O)O.CC(C)Cc1ccc(C(C)C(=O)OCC2CCCNC2)cc1 (stereo not shown) [P-5, 3-piperidinemethyl 2-(ρ-isobutylphenyl) propionate.AcOH]
Tumor size [2]: 190 ± 50 mm^3
Tumor size [3]: 390 ± 110 mm^3
lesions similar to psoriasis (Chinese white rabbits [4]): the lesions were resolved
skin lesions and lupus nephritis (mice (MRL/LPR)): all skin lesions and lupus nephritis were resolved

CC(=O)Oc1ccccc1C(=O)Oc1ccccc1C(=O)O.CCN(CC)CCOC(=O)c1ccccc1OC(=O)c1ccccc1OC(C)=O [P-59, diethylaminoethyl acetylsalicylsalicylate.acetylsalicylsalicylic acid salt]
Blood glucose, Average ([5]; average second to fifth week, no fasting, equal to 20 mg/kg of NSAIAs once per day for 5 weeks): 8.7 ± 1 mmol/L
Blood glucose, Baseline ([5]; baseline, equal to 20 mg/kg of NSAIAs once per day): 16.3 ± 3 mmol/L
Cholesterol (HDL), Baseline [6, 14]: 1.6 ± 0.2 mmol/L
Cholesterol (total), Baseline [6, 14]: 7.6 ± 0.6 mmol/L
Triglycerides, Baseline [6, 14]: 5.6 ± 0.5 mmol/L
Cholesterol (HDL), Average [6, 15]: 1.6 ± 0.2 mmol/L
Cholesterol (total), Average [6, 15]: 5.1 ± 0.3 mmol/L
Triglycerides, Average [6, 15]: 1.9 ± 0.2 mmol/L
Blood glucose, Diabetic rats, Average ([7]; average second to fifth week, no fasting, equal to 20 mg/kg of NSAIAs every day for 5 weeks): 8.6 ± 1 mmol/L
Blood glucose, Diabetic rats, Baseline [7, 14]: 15.3 ± 3 mmol/L
Cholesterol (HDL), Baseline [8, 14]: 1.9 ± 0.2 mmol/L
Cholesterol (total), Baseline [8, 14]: 7.7 ± 0.6 mmol/L
Triglycerides, Baseline [8, 14]: 5.4 ± 0.6 mmol/L
Cholesterol (HDL), Average [8, 16]: 1.8 ± 0.2 mmol/L
Cholesterol (total), Average [8, 16]: 5.7 ± 0.3 mmol/L
Triglycerides, Average [8, 16]: 2.7 ± 0.2 mmol/L
Blood glucose, Average ([9]; average fourth to seventh week, no fasting, equal to 30 mg/kg of NSAIAs once per day for 7 weeks): 8.7 ± 1 mmol/L
Blood glucose, Baseline ([9]; baseline, equal to 30 mg/kg of NSAIAs): 24.3 ± 3 mmol/L
lung tissue and vascular walls (thrombus propagation) (Chinese white rabbits [10]): both lung tissue and vascular walls were normal
Blood glucose, Average (normal rats [11]; normal rats (second Average line of Table 24), average second to fifth week, equal to 20 mg/kg of NSAIAs once per day): 7.3 ± 1 mmol/L
Blood glucose, Baseline (normal rats [11]; normal rats (second Baseline line of Table 24), baseline, equal to 20 mg/kg of NSAIAs): 7.2 ± 1 mmol/L
Blood glucose, Normal rats, Average (normal rats [12]; average second to fifth week, equal to 20 mg/kg of NSAIAs every day): 7.3 ± 1 mmol/L
Blood glucose, Normal rats, Baseline (normal rats [12]; [14]): 7.5 ± 1 mmol/L

CC(C)NCC(O)COc1ccc(CC(N)=O)cc1 (stereo not shown) [atenolol]
Blood pressure (2 weeks after treatment), second value (Hypertension patients; 2 weeks after treatment): 113 ± 23 mmHg
Blood Pressure (before treatment), second value (Hypertension patients; before treatment): 110 ± 20 mmHg

CCN(CC)CCOC(=O)C(C)c1ccc(CC(C)C)cc1.O=C(O)CC(O)(CC(=O)O)C(=O)O (stereo not shown) [diethylaminoethyl 2-(ρ-isobutylphenyl)propionate. citric acid salt]
ibuprofen found in the milk [13]: 55 ± 8 µg/mL
ibuprofenamine found in the milk [13]: 10 ± 5 µg/mL

CCN(CC)CCOC(=O)c1ccccc1OC(C)=O.Cl [diethylaminoethyl acetylsalicylate•HCl]
Intraocular pressure, Base-line ([1]; base-line, prior to treatment, group B, 30 mg/kg around the eye): 24.1 ± 0.7
Intraocular pressure, End of treatment (day10) ([1]; day 10, group B, 30 mg/kg applied to the area around the eye for 10 days): 16.1 ± 0.5
